Test results reported in PMC11435093, “Synthesis and Evaluation of ^99mTc(CO)3 Complexes with Ciprofloxacin Dithiocarbamate for Infection Imaging” (Pharmaceutics, 2024).

Assays:
[1] = tested on: Swiss Albino mice with induced infection (Staphylococcus aureus) and aseptic inflammation (turpentine); assay: Biodistribution in mice with induced infection and aseptic inflammation; format: in vivo; conditions: for Urine radioactivity: per sample
Method: The in vivo behavior of HPLC purified technetium-99m complexes 1′–6′ was evaluated through biodistribution studies in Swiss Albino mice (40 ± 5 g) with induced infection and aseptic inflammation. The experiment was conducted in accordance with the guidelines for the protection of animals used for scientific purposes. Mice were divided into groups and prepared for biodistribution studies by inducing infection and aseptic inflammation. Twenty-four hours prior to the injection of the technetium complexes, the left thigh muscle of each mouse was inoculated with 50 µL of a Staphylococcus aureus suspension (1 × 10^6 CFU/mL) to induce infection. Aseptic inflammation was induced in the right thigh muscle by injecting 50 µL of turpentine oil. The technetium-99m complexes were administered intravenously via the tail vein. Each mouse received an injection of 0.037 MBq of the respective technetium-99m complex. The biodistribution was studied at two different time points, 15 min and 120 min post-injection. At each time point, the mice were sacrificed under anesthesia. Blood samples were obtained by cardiac puncture. The organs of interest were collected after dissection, including the liver, heart, kidneys, stomach, intestines, spleen, muscle (normal, infected, and inflamed), lungs, pancreas, and urinary bladder. The organs were made free from adhering tissues and transferred into pre-weighed counting vials. The radioactivity of the collected samples was measured using a shielded well-type gamma counter. The results were expressed as a percentage of injected dose per gram of tissue (% ID/g). The radioactivity ratios in infected muscle to normal muscle and inflamed muscle to normal muscle were calculated to assess the specificity and selectivity of the technetium complexes for infection and inflammation.

[2] = Lipophilicity: partition between n-octanol and PBS pH 7.4; format: physicochemical; conditions: n-octanol/PBS pH 7.4, M: 99mTc, three determinations
Method: The lipophilicity of HPLC purified technetium-99m complexes 1′–6′ was determined by measuring the partition coefficient (logD7.4) between n-octanol and phosphate-buffered saline (PBS, pH 7.4) based on established literature methods and is briefly described here. An aliquot of each technetium-99m complex was added to a mixture of equal volumes (2.0 mL each) of n-octanol and PBS (pH 7.4) in a 5 mL centrifuge tube. The mixture was vigorously vortexed for 2 min and then centrifuged at 5000 rpm for 5 min to ensure complete phase separation. After centrifugation, 0.1 mL aliquots from both the n-octanol and PBS phases were sampled and their radioactivity was measured using a gamma counter. The log P was calculated using the following equation: […]. The procedure was repeated three times for each complex to ensure reproducibility.

[3] = Cysteine and histidine challenge (transchelation); format: physicochemical; conditions: 37 °C, 6 h
Method: (§1) The preparation of the ^99mTc-labeled complexes from synthesis to HPLC purification was completed within 1.5 h. Then, the stability of HPLC purified technetium-99m complexes 1′–6, with an RCP of 99% (based on HPLC), was assessed by monitoring their RCP over time and under various conditions using HPLC analysis based on established literature methods and is briefly described here.
Challenge experiments were performed by incubating the purified complexes with 10^−3 M solutions of cysteine and histidine at 37 °C. For each complex (1′–6′), 0.2 mL of the purified complex was mixed with 0.2 mL of the cysteine or histidine solution and incubated for 6 h. Aliquots were taken at the end of the incubation period and analyzed by HPLC.

[4] = Stability of HPLC-purified 99mTc complexes (HPLC); format: physicochemical; conditions: HPLC-purified complex, room temperature, periodic HPLC
Method: as §1
After purification by HPLC, the stability of the isolated technetium-99m complexes was evaluated over 6 h. The purified complexes were stored at room temperature, and aliquots were taken at 1, 3, and 6 h for HPLC analysis.

| Substance | Infection (S. aureus infected muscle) radioactivity ([1]; 15 min post i.v. injection) [%ID/g] | Intestines radioactivity ([1]; 15 min post i.v. injection) [%ID/g] | Kidneys radioactivity ([1]; 15 min post i.v. injection) [%ID/g] | Liver radioactivity ([1]; 15 min post i.v. injection) [%ID/g] | Lungs radioactivity ([1]; 15 min post i.v. injection) [%ID/g] | Muscle (normal) radioactivity ([1]; 15 min post i.v. injection) [%ID/g] | Pancreas radioactivity ([1]; 15 min post i.v. injection) [%ID/g] | Spleen radioactivity ([1]; 15 min post i.v. injection) [%ID/g] | Stomach radioactivity ([1]; 15 min post i.v. injection) [%ID/g] | Intestines radioactivity ([1]; 120 min post i.v. injection) [%ID/g] | Kidneys radioactivity ([1]; 120 min post i.v. injection) [%ID/g] | Liver radioactivity ([1]; 120 min post i.v. injection) [%ID/g] | Lungs radioactivity ([1]; 120 min post i.v. injection) [%ID/g] | Muscle (normal) radioactivity ([1]; 120 min post i.v. injection) [%ID/g] | Pancreas radioactivity ([1]; 120 min post i.v. injection) [%ID/g] | Spleen radioactivity ([1]; 120 min post i.v. injection) [%ID/g] | LogD7.4 [2] | also measured |
| --- | --- | --- | --- | --- | --- | --- | --- | --- | --- | --- | --- | --- | --- | --- | --- | --- | --- | --- |
| fac-[M(CO)3(Cip-DTC)(ADAP)] [complex 6′] | 0.94 ± 0.09 | 3.22 ± 0.32 | 8.05 ± 0.22 | 20.95 ± 1.56 | 7.13 ± 0.35 | 1.01 ± 0.12 | 3.70 ± 0.26 | 6.40 ± 0.66 | 0.98 ± 0.29 | 10.24 ± 1.11 | 4.47 ± 0.52 | 22.98 ± 2.70 | 3.06 ± 0.10 | 0.69 ± 0.05 | 2.27 ± 0.37 | 2.55 ± 0.27 | 1.6 | Aseptic Infl. (turpentine inflamed muscle) radioactivity ([1]; 15 min post i.v. injection): 1.10 ± 0.06 %ID/g; Blood radioactivity ([1]; 15 min post i.v. injection): 2.18 ± 0.06 %ID/g; Heart radioactivity ([1]; 15 min post i.v. injection): 4.27 ± 0.42 %ID/g; Urine radioactivity ([1]; 15 min post i.v. injection): 0.37 ± 0.08 %ID; Aseptic Infl. (turpentine inflamed muscle) radioactivity ([1]; 120 min post i.v. injection): 0.66 ± 0.10 %ID/g; Blood radioactivity ([1]; 120 min post i.v. injection): 1.33 ± 0.10 %ID/g; Heart radioactivity ([1]; 120 min post i.v. injection): 1.94 ± 0.31 %ID/g; Infection (S. aureus infected muscle) radioactivity ([1]; 120 min post i.v. injection): 0.69 ± 0.09 %ID/g; Stomach radioactivity ([1]; 120 min post i.v. injection): 3.14 ± 0.69 %ID/g; Urine radioactivity ([1]; 120 min post i.v. injection): 1.49 ± 0.23 %ID |
| fac-[M(CO)3(Cip-DTC)(DMPP)] [complex 5′] | – | – | – | 35.51 ± 0.97 | 9.87 ± 0.89 | 0.40 ± 0.06 | 0.83 ± 0.18 | 18.04 ± 0.73 | – | 9.98 ± 1.22 | 5.69 ± 1.44 | 31.27 ± 5.71 | 5.37 ± 0.47 | 1.34 ± 0.09 | 3.68 ± 0.48 | 7.64 ± 1.22 | 2.0 | – |
| fac-[^99mTc(CO)3(Cip-DTC)(H2O)] [complex 1′] | 1.06 ± 0.20 | 0.71 ± 0.11 | 5.16 ± 0.32 | 22.05 ± 1.40 | 6.41 ± 1.14 | 0.18 ± 0.02 | 0.91 ± 0.04 | 9.79 ± 1.69 | 0.91 ± 0.20 | – | 5.76 ± 0.65 | 25.96 ± 2.23 | 4.33 ± 0.41 | 0.18 ± 0.01 | – | 5.24 ± 0.45 | 1.2 | stability in cysteine ([3]; 10^-3 M cysteine): 90%; stability in histidine ([3]; 10^-3 M histidine): 91%; blood clearance / blood radioactivity course ([1]; within 120 min): slow blood clearance; stability post-purification (integrity, HPLC) [4]: 92% |
